# Test: Visual evaluation of dispersibility of celecoxib powders after reconstitution in 0.01N HCl
# Type: physicochemical
# Method: The unprocessed celecoxib, the blended celecoxib, and the jet milled blended celecoxib were analyzed using visual inspection and by light microscopy (performed on a hemacytometer slide) following reconstitution in 0.01N HCl. FIGS. 5A, 5B, and 5C show the particles of the bulk celecoxib, the blended powder, and the jet-milled blended powder, respectively. The quality of the suspensions are described in Table 2.
structure (smiles),measurement,value
"Cc1ccc(-c2cc(C(F)(F)F)nn2-c2ccc(S(N)(=O)=O)cc2)cc1 [Celecoxib/no blending or jet milling, celecoxib]",Visual Evaluation of Suspension,Poor suspension containing many

# Source: patent US20070148211A1, “PROCESSES FOR MAKING PARTICLE-BASED PHARMACEUTICAL FORMULATIONS FOR ORAL ADMINISTRATION” (Acusphere, Inc., priority 2005, published 2007)
